In article PMC3917480 (Bioorganic & medicinal chemistry, 2013):
Values belong to the compound of their own block, whether it stands above or below them. Where a SMILES comes first, the peptide text is derived from it. The star is where a group is joined. X3 = O=C(c1ccc(N2CCNCC2)cn1)*; X5 = CC(C)COc1cccc(CC(=O)*)c1; X6 = CCCOc1cccc(CC(=O)*)c1; X2 = CCOc1cccc(CC(=O)*)c1

Columns and labels:
CDK4/cyclin D1 = CDK4/cyclin D1 (Homo sapiens, UniProt P24385); experiment: CDK4D1 fluorescence polarization competitive binding assay; details: for binding affinity (in words), CDK4D1: FLIP context
CDK2/cyclin A = CDK2/cyclin A (Homo sapiens, UniProt P20248); experiment: CDK2A2 fluorescence polarization competitive binding assay; details: FLIP context

Sequence of CDK4/cyclin D1 (P24385 whole entry): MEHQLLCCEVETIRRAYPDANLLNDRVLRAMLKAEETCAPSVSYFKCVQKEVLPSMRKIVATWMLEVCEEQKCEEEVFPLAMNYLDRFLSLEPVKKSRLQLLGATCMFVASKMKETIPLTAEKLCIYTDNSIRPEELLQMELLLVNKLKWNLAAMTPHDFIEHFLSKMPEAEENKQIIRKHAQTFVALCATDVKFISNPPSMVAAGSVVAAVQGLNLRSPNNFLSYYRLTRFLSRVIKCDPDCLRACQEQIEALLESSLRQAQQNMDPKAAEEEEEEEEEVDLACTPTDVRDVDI
Sequence of CDK4/cyclin D1 (P11802 whole entry partner): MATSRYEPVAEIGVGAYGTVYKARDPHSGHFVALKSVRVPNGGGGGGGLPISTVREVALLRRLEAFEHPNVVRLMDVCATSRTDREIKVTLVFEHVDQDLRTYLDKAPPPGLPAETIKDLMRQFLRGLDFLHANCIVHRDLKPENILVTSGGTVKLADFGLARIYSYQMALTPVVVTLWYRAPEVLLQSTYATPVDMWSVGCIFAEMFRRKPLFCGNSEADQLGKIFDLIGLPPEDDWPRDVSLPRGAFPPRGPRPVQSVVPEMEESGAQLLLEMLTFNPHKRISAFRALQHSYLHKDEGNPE

Structure (SMILES): CCOc1cccc(CC(=O)N[C@@H](CCCNC(=N)N)C(=O)N[C@@H](CC(C)C)C(=O)N[C@H](C(=O)N[C@@H](Cc2ccccc2)C(N)=O)[C@@H](C)CC)c1 [compound 5854] (X2-RLIF-NH2)
binding affinity (in words), CDK4D1 (CDK4/cyclin D1): None of these analogs in the FLIP context possessed appreciable binding affinity | binding affinity (in words), CDK2A2 (CDK2/cyclin A): None of these analogs in the FLIP context possessed appreciable binding affinity

Structure (SMILES): CCCOc1cccc(CC(=O)N[C@@H](CCCNC(=N)N)C(=O)N[C@@H](CC(C)C)C(=O)N[C@H](C(=O)N[C@@H](Cc2ccccc2)C(N)=O)[C@@H](C)CC)c1 [compound 5853] (X6-RLIF-NH2)
binding affinity (in words), CDK4D1 (CDK4/cyclin D1): None of these analogs in the FLIP context possessed appreciable binding affinity | binding affinity (in words), CDK2A2 (CDK2/cyclin A): None of these analogs in the FLIP context possessed appreciable binding affinity

increased potency relative to 525 in CDK4D1 (CDK4/cyclin D1; relative to 525): 2 fold
Structure (SMILES): CC[C@H](C)[C@H](NC(=O)[C@H](CC(C)C)NC(=O)[C@H](CCCNC(=N)N)NC(=O)c1ccc(N2CCNCC2)cn1)C(=O)N[C@@H](Cc1ccccc1)C(N)=O [compound 5856] (X3-RLIF-NH2)

Structure (SMILES): CC[C@H](C)[C@H](NC(=O)[C@H](CC(C)C)NC(=O)[C@H](CCCNC(=N)N)NC(=O)Cc1cccc(OCC(C)C)c1)C(=O)N[C@@H](Cc1ccccc1)C(N)=O [compound 5855] (X5-RLIF-NH2)
binding affinity (in words), CDK4D1 (CDK4/cyclin D1): None of these analogs in the FLIP context possessed appreciable binding affinity | binding affinity (in words), CDK2A2 (CDK2/cyclin A): None of these analogs in the FLIP context possessed appreciable binding affinity
